Data from patent US20120172292A1, “METHOD FOR PROTECTION OF ANTIMICROBIAL AND ANTICANCER DRUGS FROM INACTIVATION BY NITRIC OXIDE” (NEW YORK UNIVERSITY, priority 2009, published 2012).
Values joined by “and” are separate entries in the source; they are usually repeats but may differ in a detail not shown here. Identical values can stand only once.

Legend:
Streptococcus = settings: cited from earlier work
Streptococcus C203 = settings: cited from earlier work
B.subtilis [1] = experiment: Growth of B.subtilis with ACR or AO premixed with NO donor; assay type: cell-based
S. aureus = settings: cited from earlier work
B.subtilis [2] = assay type: cell-based
B.anthracis [3] = assay type: cell-based; settings: CuFL 20 μM
B. subtilis = assay type: cell-based
B.anthracis [4] = assay type: cell-based
S.aureus 4220 and Δnos = assay type: cell-based; settings: 0.4 μg/ml CEF
B.subtilis 6051 and Δnos = assay type: cell-based; settings: 25 μg/ml cefuroxime

Nc1c2ccccc2nc2cc([N+](=O)[O-])ccc12 [3-nitro-9-aminoacridine]
MIC (Streptococcus): 1.5 μM and ~0.4 μg/ml

COc1cc2c(N)c3ccc([N+](=O)[O-])cc3[n+]([O-])c2cc1OC [9-Amino-2,3-dimethoxy-6-nitroacridine 10-oxides]
MIC (Streptococcus C203): 20 nM and ~6 ng/ml

COc1cc(NS(C)(=O)=O)ccc1Nc1c2ccccc2nc2ccccc12 [AMSAcrine]
cell survival, AMSAcrine preincubated with exogenous NO versus AMSAcrine alone (HepG2 human hepatocytes; 20 μM AMSAcrine, 100 μM MAHMA NONOate, viability 24 hours later): 5.5 fold

CN(C)c1ccc2cc3ccc(N(C)C)cc3nc2c1 [AO, acridine orange]
effect of NO treatment on antibacterial activity (B.subtilis [1]): unaffected by NO treatment | antibacterial effect compared with ACR (B.subtilis [1]; 10 μg/ml): significantly less than that of ACR

Cc1cc2cc3ccc(N(C)C)cc3[n+](C)c2cc1N.[Cl-] [Flavicid]
MIC (S. aureus): 10 μM and ~2.6 μg/ml

COC(=O)[C@@H](N)CCCNC(=N)N[N+](=O)[O-] [L-NAME, N G -nitro-L-arginine methyl ester]
sensitivity of hepatocytes to AMSAcrine after inhibition of cellular NOS (HepG2 human hepatocytes; 4 mM L-NAME 8 hours prior to 20 μM AMSAcrine): increased sensitization

c1ccc(-c2ccccn2)nc1 [bipyridyl]
effect of pretreatment on toxicity of ACR (B.subtilis [2]): substantially decreased the toxicity of ACR

CO/N=C(\C(=O)N[C@@H]1C(=O)N2C(C(=O)O)=C(COC(N)=O)CS[C@H]12)c1ccco1 [cefuroxime]
NO production after antibiotic challenge (B.anthracis [3]): greatly stimulated NO production | end products of NO oxidation (nitrite/nitrate) in growing culture after challenge (B. subtilis): increase | killing of nos deficient versus wt cells (B.anthracis [4]): much more efficiently than wt cells | growth inhibition of nos-deficient versus wild type cells (S.aureus 4220 and Δnos): much greater extent | killing of nos deficient versus wt cells (B.subtilis 6051 and Δnos): much more efficiently than wt cells
